Experimental data taken from US11291712B2, “Bacterial protein compositions and uses thereof” (The United States Government as Represented by the …, priority 2017, dated 2022).
Entries after “also recorded” stand apart in the source; their conditions may differ.

Legend:
[1] = system: A. baumannii strain AB5075 VIR-O and AV-T variants; experiment: Antimicrobial killing assays (time-kill); type: cell-based, Acinetobacter baumannii; settings: equal mixture of VIR-O and AV-T, 1 hour, CRAMP 10 μg/mL, lysozyme 10 mg/mL, LL-37 15 μg/mL, H2O2 0.01%
Method: An equal mixture of VIR-O and AV-T variants were grown to early-log phase in 2 mL LB broth, or LB with tetracycline 6 μg/mL for strains with plasmids. A 5 μL aliquot of each culture was mixed together in 250 μL of 0.1× tryptone/yeast extract (1 g tryptone, 0.5 g yeast extract/liter). Cells were mixed by vortexing and serial dilutions were plated on 0.5×LB agar plates to assess the initial CFU's for both VIR-O and AV-T variants. Various antimicrobials were then added at the following final concentrations: CRAMP (10 μg/mL), lysozyme (10 mg/mL), LL-37 (15 μg/mL) and H2O2. (0.01%). Cells were treated for 1 hour and dilutions were plated on 0.5×LB agar plates to enumerate the surviving VIR-O and AV-T variants.

[2] = system: A. baumannii strain AB5075 VIR-O and AV-T cells; experiment: Sensitivity to disinfectants; type: cell-based, Acinetobacter baumannii; settings: BZT 0.01%, BAK 0.004%, CHG 0.008%; 30 min at room temperature
Method: Overnight standing bacterial cultures at room temperature were sub-cultured in LB broth and grown at 37° C. with shaking to an OD600˜0.15. Nine hundred ninety microliters of culture were then added to tubes containing 10 μL of the appropriated disinfectants, BZT (Sigma-Aldrich), BAK (Sigma-Aldrich) and CHG (Sigma-Aldrich), respectively. Tubes were incubated at room temperature for 30 min. Cultures were then serially diluted and plated for CFU enumerations.

Row | Compound | survival of VIR-O (O) cells compared to AV-T (T) cells after treatment with the antimicrobial [1] | survival of VIR-O (O) cells compared to AV-T (T) cells after treatment with the antimicrobial ([1]; listed as hydrogen peroxide) | resistance of VIR-O (O) cells to the disinfectant compared to AV-T (T) cells [2]
1 | OO [H2O2, hydrogen peroxide] | resistant | VIR-O cells vastly outnumbered AV-T cells | 
2 | lysozyme | resistant; also recorded: VIR-O cells vastly outnumbered AV-T cells |  | 
3 | CC(C)(C)CC(C)(C)c1ccc(OCCOCC[N+](C)(C)Cc2ccccc2)cc1 [benzethonium chloride] |  |  | more resistant; also recorded: increased resistance
4 | LL-37: human antimicrobial peptide, the human orthologue of CRAMP | VIR-O cells also outnumbered AV-T; also recorded: resistant |  | 
5 | benzalkonium chloride |  |  | more resistant; also recorded: increased resistance
6 | CRAMP: murine cationic antimicrobial peptide (ISRLAGLLRKGGEKIGEKLKKIGQKIKNFFQKLVPQPE; UniProt P51437 135-172, looked up) | resistant; also recorded: VIR-O cells vastly outnumbered AV-T cells |  | 
7 | N=C(NCCCCCCNC(=N)NC(=N)Nc1ccc(Cl)cc1)NC(=N)Nc1ccc(Cl)cc1.O=C(O)[C@H](O)[C@@H](O)[C@H](O)[C@H](O)CO.O=C(O)[C@H](O)[C@@H](O)[C@H](O)[C@H](O)CO [chlorhexidine gluconate] |  |  | more resistant; also recorded: increased resistance
